Laboratory results taken from patent US20080312207A1, “Compounds” (priority 2004, published 2008).

Legend:
[1] = molecular target: T1, recombinant human pancreatic GLK (Homo sapiens, UniProt P35557); assay: Enzymatic activity of GLK (G-6-P dehydrogenase coupled, NADP/NADPH, OD 340 nm); format: biochemical; conditions: read-out: activating activity for glucokinase, EC50
T1 construct: 6-His (N); made in house; host or cells: E. coli BL21
T1 sequence (P35557 1-465): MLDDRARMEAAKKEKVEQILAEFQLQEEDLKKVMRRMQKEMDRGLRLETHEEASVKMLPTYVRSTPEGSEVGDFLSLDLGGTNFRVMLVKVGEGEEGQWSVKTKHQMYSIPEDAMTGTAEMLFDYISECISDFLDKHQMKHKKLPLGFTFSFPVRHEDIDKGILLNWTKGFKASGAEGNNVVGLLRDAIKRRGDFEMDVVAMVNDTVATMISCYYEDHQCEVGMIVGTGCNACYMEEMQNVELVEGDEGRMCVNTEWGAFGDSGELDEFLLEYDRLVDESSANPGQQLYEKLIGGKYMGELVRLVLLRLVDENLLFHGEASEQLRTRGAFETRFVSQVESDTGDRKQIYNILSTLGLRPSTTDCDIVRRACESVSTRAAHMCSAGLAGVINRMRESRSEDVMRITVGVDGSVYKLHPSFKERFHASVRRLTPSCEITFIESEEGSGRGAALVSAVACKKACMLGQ

Zucker obese fa/fa rats = assay: Oral Glucose Tolerance Test (OGTT); format: in vivo, rat; conditions: 10 mg/kg, given orally 120 minutes before glucose 2 g/kg; percent inhibition of blood glucose AUC vs vehicle
Protocol: The animals were fasted for 2 hours before use for experiments. A test compound or a vehicle was given orally 120 minutes before oral administration of a glucose solution at a dose of 2 g/kg body weight. Blood glucose levels were measured using a Accucheck glucometer from tail bled samples taken at different time points before and after administration of glucose (time course of 60 minutes). […] Percent inhibition is determined using the AUC in the vehicle-control group as zero percent inhibition.

Oral exposure = format: in vivo; conditions: compared with Example II107 in WO 03/015774

SMILES | EC50 [1] | OGTT activity (Zucker obese fa/fa rats) | oral exposure (Oral exposure)
CC(C)Oc1cc(Oc2ccc(S(C)(=O)=O)cc2)cc(C(=O)Nc2nccs2)c1 [Example 7c, 3-(1-methylethyl)oxy-5-[4-(methylsulfonyl)phenoxy]-N-1,3-thiazol-2-ylbenzamide] | 0.05 µM | 18% | superior
Cc1cnc(NC(=O)c2cc(OCCc3ccsc3)cc(OC(C)C)c2)s1 [Example II107 in WO 03/015774, reference compound] | – | not active | –
